Assay [1] has as its system MDA-MB-231 cells. Nature of the assay: MTT cytotoxicity/photocytotoxicity test on human TNBC MDA-MB-231 cells. As to conditions: Homo sapiens. The format is cell-based. As to the method: The irradiation device used for the irradiation of cell cultures during the assays was a black box equipped with two Philips UVA lamps with an irradiance of 17 mW cm^−2 and a centered emission peak at 365 nm; UVA irradiance was measured using a Waldmann Variocontrol radiometer, equipped with a UVA sensor. The box was maintained at room temperature inside with a fan and the multiwell plates were placed onto a water-refrigerated metal block.
Human triple negative (TNBC) breast MDA-MB-231 carcinoma cells were obtained from American Type Culture Collection (ATCC, Rockville, MD, USA). Human embryonic kidney HEK293 cells were obtained from the European Collection of Cell Cultures (ECACC, Salisbury, UK). Cell lines were maintained in the logarithmic phase at 37 °C in a 5% CO2 atmosphere using the following culture media containing 10% foetal calf serum (Euroclone, Milan, Italy), antibiotics (50 units/mL penicillin and 50 μg/mL streptomycin) and 2 mM l-glutamine: (i) RPMI-1640 medium (Euroclone, Milan, Italy) for MDA-MB-231 4 cells; (ii) DMEM (Euroclone, Milan, Italy) for HEK293 cells.
Cells (5–8 × 10^3 cells/well, dependent upon the growth characteristics of the cell line) were seeded in 96-well microplates in growth medium (100 μL). After 24 h, the medium was removed and replaced with a fresh one containing the compound to be studied at the appropriate concentration. Triplicate cultures were established for each treatment. For photocytotoxicity studies, after 1 h of incubation the medium was replaced with PBS and cells were treated with 2.0 J cm^−2 of UVA light. After irradiation, PBS was replaced with complete proliferation media. For pre-irradiation studies, instead, compounds in PBS were irradiated with 2.0 J cm^−2 of UVA light and subsequently cells were treated with pre-irradiated solutions. Following 24 h, each well was treated with 10 μL of a 5 mg/mL MTT saline solution, and following 5 h of incubation, 100 μL of a sodium dodecyl sulfate (SDS) solution in HCl 0.01 M were added. After an overnight incubation, cell growth inhibition was detected by measuring the absorbance of each well at 570 nm using a Bio-Rad 680 microplate reader. Mean absorbance for each drug dose was expressed as a percentage of the control untreated well absorbance and plotted against drug concentration. IC50 values, the drug concentrations that reduce the mean absorbance at 570 nm to 50% of those in the untreated control wells, were calculated by the four-parameter logistic (4-PL) model. Evaluation was based on means from at least four independent experiments.
The new synthetized pyrrolo[1,2-h][1,7]naphthyridinones 7 and pyrido[2,3-c]pyrrolo[1,2-a]azepinones 8 were screened for their cytotoxicity (in the dark) and photocitotoxicity (upon UVA light irradiation at 2.0 J/cm^2) profile on human TNBC cells, MDA-MB-231. The cytotoxicity/photocytotoxicity parameters, expressed in terms of IC50 values obtained by MTT test after 24 h of drug-exposure, are listed in Table 2.

The subject of assay [2] is MDA-MB-231 cells. As to the kind of experiment: Quantification of thiols (DTNB assay). Type of assay: cell-based, human. As to conditions: MDA-MB-231, 25 µM; for Intracellular thiols (qualitative): UVA 2.0 J/cm^2. The procedure:
The MDA-MB-231 cells (2 × 10^5) were seeded in a six-well plate in growth medium (4 mL). After 24 h, cells were incubated with tested compounds (25 µM) for 90 min, and after that exposed to UVA light (2.0 J/cm^2). Subsequently, after 24 h, the thiol content was measured as previously described (Rigobello et al. [2009]).
Fig. 4 Cellular ROS production (A) and total thiol redox state (B). A Effect of UVA activated tested compounds (25 µM) or antimycin (3 µM) on hydrogen peroxide formation in MDA-MB-231 cancer cells. B Sulfhydryl content in MDA-MB-231 cancer cells incubated for 24 h with UVA activated tested compounds. The sulfhydryl group amount was determined by the DTNB assay. Error bars indicate S.D

Setting [3] is: MDA-MB-231, in the dark, 1 h pre-treatment, recovered for total 24 h, read-out: Dark IC50 (µM) ± S.D.
Where [4] appears, read: light or radiation study, MDA-MB-231, 1 h pre-treatment, UVA 2.0 J/cm^2, recovered for total 24 h, read-out: UVA (2.0 J/cm^2) IC50 (µM) ± S.D.

Read-outs that look alike come from different tables or passages of the source. Bounds are passed on as bounds.

As to `CCOC(=O)c1ccc2n1CCc1cc(S(=O)(=O)c3ccccc3)c(OC)nc1-2` [Compound 7h, Ethyl 3-(benzenesulfonyl)-2-methoxy-5,6-dihydropyrrolo[1,2-h][1,7]naphthyridine-8-carboxylate], the IC50 in assay [1] (setting [3]) was > 50 µM; in assay [1] (setting [4]) it was 4.4 ± 0.5 µM. In addition, the “Intracellular thiols (qualitative)” value in assay [2] is on record as “significantly decreased”. Also, the “Decrease of intracellular sulfhydryl content” value in assay [2] (UVA 2.0 J/cm^2, after 24 h of exposure) is “about 45%”.
For `CCOC(=O)c1ccc2n1CCCc1cc(S(=O)(=O)c3ccccc3)c(OC)nc1-2` [Compound 8e, Ethyl 3-(benzenesulfonyl)-2-methoxy-6,7-dihydro-5H-pyrido[2,3-c]pyrrolo[1,2-a]azepine-9-carboxylate], the IC50 was > 50 µM in assay [1] (setting [3]) and 15.3 ± 1.7 µM in assay [1] (setting [4]). Moreover, the “Intracellular thiols (qualitative)” value in assay [2] is “significantly decreased”.
